Reference: patent publication US20220151887A1 (AQUA BANK CO.,LTD., priority 2019, published 2022)

How the values were obtained:
[1] = Protocol: (§1) The selection criteria were good health and no smoking. The subjects were allowed to sit in a sitting position for 30 minutes after entering a test room set at a room temperature of 24° C. and a relative humidity of 50% to acclimatize to the experimental environment. After acclimation, physiological measurements were conducted. As the physiological measurements, skin temperature measurements were performed.
<<Evaluation of Pupil Contraction Rate in Pupil Reaction to Light by Measuring Pupil Reaction to Light (Single Time Evaluation Test (FIG. 6))>>
After confirming that the pupil dilatation was stable, light stimulation was given for 0.1 seconds. […] The pupil contraction rate (CR), which is the rate of pupil contraction, was determined by the following expression:
Note that the pupil rapidly dilates after it contracts, and the pupil expanding speed (vd) at that time reflects the state of sympathetic nervous activity. The predominance of sympathetic nervous activity and parasympathetic nervous activity in autonomous nervous activity was determined by analysis of changes in pupil diameter.

[2] = remark: listed apart in the source
Protocol: as §1
<<Evaluation of Sympathetic Nervous Activity by Measuring Skin Temperature ((Single Time Evaluation Test (FIG. 7))>>
Since many of the peripheral blood vessel networks are controlled by sympathetic nervous activity, the predominance or inferiority of sympathetic nervous activity can be evaluated by measuring changes in blood flow in the peripheral site or changes in skin temperature in the peripheral site. Therefore, in this verification, the change in skin temperature was used as the index. In other words, changes in the skin temperatures (at the center of the forehead and the first segment pad of the index finger) of the peripheral site were measured by a temperature sensor (manufactured by Gram Corporation). The increased skin temperature in the test product is determined by the following expression:
where H1 is the temperature of the forehead center part of the control, F1 is the temperature of the finger pad center part of the control, H2 is the temperature of the forehead center part of the sample, and F2 is the temperature of the finger pad center part of the sample.
Note that, in the measurement data analysis in the physiological evaluation, the difference between the control and the blank and the difference between the test product and the blank were compared using the t-test. The significance level of the t-test was set to less than 5%.

[3] = hydrogen continuous use period 2 weeks, cheek, not significant vs non-continuous use period
Protocol: (§2) During the test period, each subject was required to perform the same skin care method as they do on a daily basis, and not to add or change cosmetics or supplements.
In other words, the subjects were divided into two groups, Group A and Group B each having 11 subjects. […] Skin physiological measurements were conducted at the start of the test (zero week), the second and fourth weeks (actually, the subjects also answered questionnaires of the 30 items of the stress checklist and the multifaceted emotion scale for verification of influences on stress, which is a factor of increased skin metabolism, as is omitted here). […]
(§3) The skin physiological measurements include: the stratum corneum water content; transepidermal water loss; skin viscoelasticity; skin color; facial image analysis by photographing with a digital imaging device (VSIA); and skin blood flow measurement with a non-contact blood flow meter. […] In the measurements listed below, the cheek site, which was the measurement site, was measured after 15 minutes of acclimation in a constant temperature and humidity chamber (temperature 20±2° C., humidity 50±10%) after the face washing. What was measured in each measurement are described below.
The degree of skin moisturization was determined by measuring the stratum corneum water content. […]

[4] = remark: listed apart in the source
Protocol: as §2
(§4) In other words, the subjects were divided into two groups, Group A and Group B each having 11 subjects. […] Skin physiological measurements were conducted at the start of the test (zero week), the second and fourth weeks (actually, the subjects also answered questionnaires of the 30 items of the stress checklist and the multifaceted emotion scale for verification of influences on stress, which is a factor of increased skin metabolism, as is omitted here). The measurement items include: the stratum corneum water content; transepidermal water loss; skin viscoelasticity; skin color; facial image analysis by photographing with a digital imaging device (VSIA); and skin blood flow measurement with a non-contact blood flow meter.
(§5) The subjects executed the inhalation for five minutes each time in the morning and evening and approximately 1 hour after each meal, as in the single time test, with the goal of using five times a day.
as §3, with “below. […]” for “below.”
(§6) The p-value was calculated as the probability to determine whether there was a statistically significant difference in the difference average values of the respective groups, and the effect size was calculated as an index representing the magnitude of the difference between the difference average values, so that the two groups are compared with each other.

[5] = hydrogen continuous use period 2 weeks, difference not significant
Protocol: as §2, §4, §5, §3
The measurements were performed at zero, second and fourth weeks.

[6] = remark: listed apart in the source
Protocol: as §2, §4, §5, §3
Skin images of the measurement site were photographed using VISIA (registered trademark) Evolution (Canfield Imaging Systems), and each skin property was analyzed. The software attached to the device was used to measure the scores of pores, spots, wrinkles, texture, redness, porphyrin, and brown spots. The measurements were performed at zero, second and fourth weeks.
as §6

[7] = hydrogen continuous use period vs non-continuous use period
[8] = hydrogen continuous use period vs nonuse period

Question: For [HH] [hydrogen], which “pupil expanding speed (vd)” value ([1]; after hydrogen inhalation (not shown)) is on record?
Answer: The value was “almost unchanged”.

Question: And the “pupil contraction rate in the pupil reaction to light” value ([1]; after hydrogen inhalation for 1, 3, 5, 7 and 9 minutes (FIG. 6))?
Answer: Its value is “increased significantly in a time-dependent manner”.

Question: And the “pupil contraction rate CR” value ([1]; after hydrogen inhalation, especially 5 minutes or more, vs before inhalation, p<0.001)?
Answer: The value was “significantly increased”.

Question: And the “skin temperature of the index finger, average increase” value ([2]; hydrogen inhalation for 5 minutes vs control, 17 subjects, p<0.001)?
Answer: The value was 3.6 °C.

Question: And the “skin temperature of the forehead, change” value ([2]; hydrogen inhalation for 5 minutes vs spontaneous breathing control)?
Answer: Its value is “hardly found to change”.

Question: And the “skin temperature of the index finger, increase in individual subjects” value ([2]; hydrogen inhalation for 5 minutes, some subjects)?
Answer: Its value is at least 6 °C.

Question: What about the “skin (stratum corneum) water content, difference average value” ([3]; 5 min about five times a day) of the same compound?
Answer: Its value is “+34.9 μS”.

Question: What about the “transepidermal water loss, difference average value” [3] of the same compound?
Answer: The value was “+34.9”.

Question: What about the “instantaneous skin return rate R7 (Ur/Uf), difference average value” ([4]; hydrogen continuous use period 2 weeks, cheek, p 0.028 vs nonuse period) of the same compound?
Answer: The value was 0.01.

Question: What about the “R7 (Ur/Uf) effect size” value ([4]; hydrogen continuous use period vs hydrogen nonuse period) of the same compound?
Answer: Its value is 0.74.

Question: What about the “skin return rate R2, difference average value” ([4]; hydrogen use period 2 weeks, cheek, p 0.076 vs nonuse period) of the same compound?
Answer: The value was 0.01.

Question: What about the “skin color ΔL* (black and white degree), difference average value” ([5]; cheek) of the same compound?
Answer: Its value is “+0.30”.

Question: What about the “skin color Δa* (redness degree), difference average value” ([5]; cheek) of the same compound?
Answer: The value was −0.23.

Question: And the “skin color Δb* (yellowness degree), difference average value” ([5]; cheek)?
Answer: The value was −0.20.

Question: What about the “skin blood flow changes, difference average value” ([5]; entire face) of the same compound?
Answer: Its value is −0.20.

Question: And the “number of porphyrins, difference average value” ([6]; hydrogen continuous use period 2 weeks, difference not significant)?
Answer: The value was −103.05.

Question: And the “number of spots, difference average value” ([6]; hydrogen continuous use period 2 weeks, p 0.0012 vs nonuse period)?
Answer: The value was −1.8.

Question: What about the “redness of the skin color, difference average value” ([6]; hydrogen continuous use period 2 weeks, p 0.042 vs non-continuous use period) of the same compound?
Answer: Its value is −5.1.

Question: And the “number of brown spots, difference average value” ([6]; hydrogen continuous use period 2 weeks, p 0.046 vs nonuse period)?
Answer: Its value is −13.7.

Question: And the “VISIA pores, measured values” [6, 7]?
Answer: The value was “no difference”.

Question: And the “VISIA texture, measured values” [6, 7]?
Answer: Its value is “no difference”.

Question: And the “VISIA wrinkles, measured values” [6, 7]?
Answer: The value was “no difference”.

Question: And the “redness, effect size” value [6, 7]?
Answer: Its value is 0.65.

Question: What about the “number of brown spots, effect size” value [6, 8] of the same compound?
Answer: The value was 0.68.

Question: What about the “number of spots, effect size” value [6, 8] of the same compound?
Answer: Its value is 0.86.
